Patent US4401660A, “Ester derivatives of 5-O-mycaminosyl tylonolide and method of using same” (Eli Lilly and Company, priority 1981, dated 1983)
Read-outs that look alike come from different tables or passages of the source.

How the values were obtained:
[1] = system: Streptococcus pyogenes C203; assay: ED50 in mice with experimental infections (Table IV); type: in vivo; conditions: Streptococcus pyogenes, doses given 1 and 4 hours postinfection
Method in brief: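 Mice with experimental infections received test compound twice, at 1 and 4 h postinfection. ED50 is the dose in mg/kg (per administration, ×2) protecting 50% of animals.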

[2] = system: Pasteurella multocida 17E; assay: MIC, broth-dilution microtiter test (Table III); type: cell-based; design: unit not given here; conditions: bovine isolate
Method: (§1) The MIC's in Table II were determined by standard agar-dilution assays. The MIC's in Table III were obtained using a conventional broth-dilution microtiter test.

[3] = system: Pasteurella multocida 40G; assay: MIC, broth-dilution microtiter test (Table III); type: cell-based; design: unit not given here
Method: as §1

[4] = system: Pasteurella haemolytica 22C; assay: MIC, broth-dilution microtiter test (Table III); type: cell-based; design: unit not given here
Method: as §1

Streptococcus sp. 80 = assay: MIC, broth-dilution microtiter test (Table III); type: cell-based; design: unit not given here
Method: as §1

[5] = system: Pasteurella multocida 22A; assay: MIC, broth-dilution microtiter test (Table III); type: cell-based; design: unit not given here
Method: as §1

Mycoplasma synoviae = assay: MIC, broth-dilution microtiter test (Table III); type: cell-based; design: unit not given here
Method: as §1

[6] = system: Pasteurella haemolytica 41D; assay: MIC, broth-dilution microtiter test (Table III); type: cell-based; design: unit not given here
Method: as §1

[7] = system: Pasteurella haemolytica 23C; assay: MIC, broth-dilution microtiter test (Table III); type: cell-based; design: unit not given here
Method: as §1

Mycoplasma hyorhinis = assay: MIC, broth-dilution microtiter test (Table III); type: cell-based; design: unit not given here
Method: as §1

Mycoplasma gallisepticum = assay: MIC, broth-dilution microtiter test (Table III); type: cell-based; design: unit not given here
Method: as §1

[8] = system: Pasteurella multocida 60A; assay: MIC, broth-dilution microtiter test (Table III); type: cell-based; design: unit not given here; conditions: avian isolate
Method: as §1

[9] = system: Pasteurella multocida 68C; assay: MIC, broth-dilution microtiter test (Table III); type: cell-based; design: unit not given here
Method: as §1

Staphylococcus aureus = assay: MIC, broth-dilution microtiter test (Table III); type: cell-based; design: unit not given here
Method: as §1

Pasteurella multocida = assay: Treatment of Pasteurella infections in chicks (Table V); type: in vivo, one-day-old chicks; conditions: Pasteurella multocida, sc, 4 h; 30 mg/kg by subcutaneous injection one and four hours post challenge; read-out: Deaths in Treated Chicks/Number Treated (converted)
Method in brief: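 One-day-old chicks challenged subcutaneously with avian P. multocida (0.1 ml of 10^-3 dilution of 20-hour tryptose broth culture). Esters given at 30 mg/kg subcutaneously at 1 and 4 hours post challenge. Untreated infected controls, ten per group.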

[10] = system: Streptococcus Group D 9960; assay: MIC, standard agar-dilution assay (Table II); type: cell-based; design: unit not given here
Method: as §1

[11] = system: Streptococcus Group D X66; assay: MIC, standard agar-dilution assay (Table II); type: cell-based; design: unit not given here
Method: as §1

[12] = system: Staphylococcus aureus V41; assay: MIC, standard agar-dilution assay (Table II); type: cell-based; design: unit not given here; conditions: Staphylococcus aureus V41, penicillin-resistant strain
Method: as §1

[13] = system: Staphylococcus aureus S13E; assay: MIC, standard agar-dilution assay (Table II); type: cell-based; design: unit not given here
Method: as §1

[14] = system: Staphylococcus epidermidis EPI2; assay: MIC, standard agar-dilution assay (Table II); type: cell-based; design: unit not given here
Method: as §1

[15] = system: Haemophilus influenzae Holt; assay: MIC, standard agar-dilution assay (Table II); type: cell-based; design: unit not given here; conditions: ampicillin-sensitive strain
Method: as §1

[16] = system: Haemophilus influenzae R252; assay: MIC, standard agar-dilution assay (Table II); type: cell-based; design: unit not given here; conditions: Haemophilus influenzae R252, ampicillin-resistant strain
Method: as §1

[17] = system: Streptococcus pneumoniae Park I; assay: MIC, standard agar-dilution assay (Table II); type: cell-based; design: unit not given here
Method: as §1

[18] = system: Staphylococcus epidermidis EPI1; assay: MIC, standard agar-dilution assay (Table II); type: cell-based; design: unit not given here
Method: as §1

[19] = system: Streptococcus pyogenes C203; assay: MIC, standard agar-dilution assay (Table II); type: cell-based; design: unit not given here
Method: as §1

[20] = system: Staphylococcus aureus X400; assay: MIC, standard agar-dilution assay (Table II); type: cell-based; design: unit not given here; conditions: Staphylococcus aureus X400, methicillin-resistant strain
Method: as §1

[21] = system: Staphylococcus aureus X1.1; assay: MIC, standard agar-dilution assay (Table II); type: cell-based; design: unit not given here
Method: as §1

[22] = C203, oral, read-out: ED50, Oral
[23] = C203, sc, subcutaneous, read-out: ED50, Subcutaneous

SMILES | ED50 [1, 22] [mg/kg] | ED50 [1, 23] [mg/kg] | minimal inhibitory concentration (MIC) [2] | minimal inhibitory concentration (MIC) [3] | minimal inhibitory concentration (MIC) [4] | minimal inhibitory concentration (MIC) (Streptococcus sp. 80) | minimal inhibitory concentration (MIC) [5] | minimal inhibitory concentration (MIC) (Mycoplasma synoviae) | minimal inhibitory concentration (MIC) [6] | minimal inhibitory concentration (MIC) [7] | minimal inhibitory concentration (MIC) (Mycoplasma hyorhinis) | minimal inhibitory concentration (MIC) (Mycoplasma gallisepticum) | minimal inhibitory concentration (MIC) [8] | minimal inhibitory concentration (MIC) [9] | minimal inhibitory concentration (MIC) (Staphylococcus aureus) | mortality at 30 mg/kg (Pasteurella multocida) [%] | minimal inhibitory concentration (MIC) [10] | minimal inhibitory concentration (MIC) [11] | minimal inhibitory concentration (MIC) [12] | minimal inhibitory concentration (MIC) [13] | further results
CCC1OC(=O)CC(O)C(C)C(OC2OC(C)C(OC(=O)CC(C)C)C(N(C)C)C2OC(C)=O)C(CC=O)CC(C)C(=O)C=CC(C)=CC1CO (stereo not shown) [Compound 49, 2'-O-Acetyl-4'-O-isovaleryl-OMT] | > 100 | > 30 | 3.12 | 3.12 | 12.5 | 0.39 | 6.25 | 0.78 | 12.5 | 12.5 | 6.25 | 1.56 | 3.12 | 25 | 3.12 | 100 | 1 | 1 | 2 | 2 | minimal inhibitory concentration (MIC) [14]: 2; minimal inhibitory concentration (MIC) [15]: 1; minimal inhibitory concentration (MIC) [16]: 1; minimal inhibitory concentration (MIC) [17]: 0.125; minimal inhibitory concentration (MIC) [18]: 1; minimal inhibitory concentration (MIC) [19]: 0.25; minimal inhibitory concentration (MIC) [20]: 4; minimal inhibitory concentration (MIC) [21]: 1
CCC1OC(=O)CC(O)C(C)C(OC2OC(C)C(O)C(N(C)C)C2OC(C)=O)C(CC=O)CC(C)C(=O)C=CC(C)=CC1COC(=O)C=Cc1ccccc1 (stereo not shown) [Compound 33] | 146 | 9.7 | 3.12 | 3.12 | 12.5 | 0.39 | 3.12 | 0.39 | 12.5 | 12.5 | 0.78 | 0.05 | 3.12 | 3.12 | 0.39 | 80 | 1 | 1 | 0.5 | 0.5 | minimal inhibitory concentration (MIC) [14]: 0.5; minimal inhibitory concentration (MIC) [15]: 4; minimal inhibitory concentration (MIC) [16]: 4; minimal inhibitory concentration (MIC) [17]: 0.125; minimal inhibitory concentration (MIC) [18]: 0.5; minimal inhibitory concentration (MIC) [19]: 0.25; minimal inhibitory concentration (MIC) [20]: 0.5; minimal inhibitory concentration (MIC) [21]: 0.5
CCC1OC(=O)CC(O)C(C)C(OC2OC(C)C(O)C(N(C)C)C2O)C(CC=O)CC(C)C(=O)C=CC(C)=CC1COC(=O)NCc1ccccc1 (stereo not shown) [Compound 76] | > 100 | 25 | 6.25 | 6.25 | 6.25 | 0.39 | > 50 | < 0.048 | 3.12 | 3.12 | 0.78 | 0.097 | 6.25 | 3.12 | 0.39 | 100 | 0.125 | 0.25 | 0.125 | 0.125 | minimal inhibitory concentration (MIC) [14]: 0.125; minimal inhibitory concentration (MIC) [15]: 0.5; minimal inhibitory concentration (MIC) [16]: 1; minimal inhibitory concentration (MIC) [17]: 0.015; minimal inhibitory concentration (MIC) [18]: 0.125; minimal inhibitory concentration (MIC) [19]: 0.06; minimal inhibitory concentration (MIC) [20]: 0.25; minimal inhibitory concentration (MIC) [21]: 0.125
CCC1OC(=O)CC(O)C(C)C(OC2OC(C)C(O)C(N(C)C)C2O)C(CC=O)CC(C)C(=O)C=CC(C)=CC1COC(=O)Cc1ccccc1 (stereo not shown) [Compound 29, 23-O-Phenylacetyl-OMT] | > 100 | 5 | 1.56 | 1.56 | 3.12 | 0.05 | 1.56 | 0.05 | 3.12 | 3.12 | 0.195 | 0.05 | 0.78 | 1.56 | 0.097 | 0 | 0.125 | 0.125 | 0.125 | 0.125 | minimal inhibitory concentration (MIC) [14]: 0.25; minimal inhibitory concentration (MIC) [15]: 0.5; minimal inhibitory concentration (MIC) [16]: 1; minimal inhibitory concentration (MIC) [17]: 0.03; minimal inhibitory concentration (MIC) [18]: 0.125; minimal inhibitory concentration (MIC) [19]: 0.06; minimal inhibitory concentration (MIC) [20]: 0.125; minimal inhibitory concentration (MIC) [21]: 0.125
